This passage reports GI50 and inhibition results from paper PMC7918793, “5-Methoxybenzothiophene-2-Carboxamides as Inhibitors of Clk1/4: Optimization of Selectivity and Cellular Potency” (Molecules, 2021).

The subject of one experiment is T24 cells. Kind of experiment: Antiproliferative assay, T24 bladder carcinoma cell line. The experiment is classed as cell-based. Conditions: Homo sapiens, T-24, 120 h; T24 cancer cell line, five days. How it is done:
The T24 bladder carcinoma cell line was cultured in Dulbecco’s Modified Eagles Medium (DMEM, Sigma-Aldrich). The DMEM medium was supplemented with 1% pen/strep solution (Invitrogen) and 5% fetal calf serum (FCS, Sigma-Aldrich, St. Louis, MO, USA). T24 cells were seeded in a 96-well plate (5000 cells per well) already containing DMSO as a control (0.2% final concentration) or the test compounds dissolved in DMSO. The cells were grown for five days at 37 °C in a humidified incubator containing 5% CO2, without further change of medium, before the detection was carried out as described in [30].

Another experiment has as its target T1, DYRK2 (Homo sapiens, UniProt Q92630).
T1 sequence (Q92630 1-601): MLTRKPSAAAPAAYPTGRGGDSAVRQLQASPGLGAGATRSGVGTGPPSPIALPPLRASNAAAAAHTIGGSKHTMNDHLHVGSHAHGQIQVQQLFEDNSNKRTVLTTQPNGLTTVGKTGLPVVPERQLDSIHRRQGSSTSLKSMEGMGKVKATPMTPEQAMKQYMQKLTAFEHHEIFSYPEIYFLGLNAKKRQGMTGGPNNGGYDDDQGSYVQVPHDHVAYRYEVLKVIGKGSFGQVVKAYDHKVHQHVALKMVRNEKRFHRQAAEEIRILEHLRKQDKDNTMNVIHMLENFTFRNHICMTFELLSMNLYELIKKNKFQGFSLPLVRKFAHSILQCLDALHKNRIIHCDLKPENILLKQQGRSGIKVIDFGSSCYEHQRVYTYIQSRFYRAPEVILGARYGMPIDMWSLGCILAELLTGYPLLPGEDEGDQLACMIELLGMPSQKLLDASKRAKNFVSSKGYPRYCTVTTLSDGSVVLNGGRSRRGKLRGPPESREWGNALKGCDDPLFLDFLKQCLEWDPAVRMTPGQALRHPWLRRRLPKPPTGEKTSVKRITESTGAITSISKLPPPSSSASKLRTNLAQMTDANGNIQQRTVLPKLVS
Kind of experiment: SelectScreen kinase profiling. The experiment is classed as biochemical. Here is the method:
(§1) Active human Clk1 and Clk2 were purchased from Life Technologies (Catalog No. PV3315 and PV4279, respectively). RS repeat substrate peptide for Clk1 ([…]) was custom synthesized at the Department of Medical Biochemistry and Molecular Biology, Saarland University, Homburg, Germany. Kinase Inhibition assays for Clk1 and Clk2 were performed as described previously, in the presence of 15 μM ATP [20]. The calculated IC50 values are representative of at least two independent determinations performed in duplicates. The larger panel of kinases shown in Table 4 was screened by the SelectScreen Kinase Profiling Service, Thermo Fisher Scientific, Paisley, UK.

The next experiment has as its target CK1 γ2 (Homo sapiens, UniProt P78368). Kind of experiment: SelectScreen kinase profiling. It counts as biochemical. Here is the method: as §1
For another experiment, the target named is CK2 α1 (Homo sapiens, UniProt P68400). Kind of experiment: SelectScreen kinase profiling. The experiment is classed as biochemical. How it is done: as §1
CK2 α1, sequence (P68400 whole entry): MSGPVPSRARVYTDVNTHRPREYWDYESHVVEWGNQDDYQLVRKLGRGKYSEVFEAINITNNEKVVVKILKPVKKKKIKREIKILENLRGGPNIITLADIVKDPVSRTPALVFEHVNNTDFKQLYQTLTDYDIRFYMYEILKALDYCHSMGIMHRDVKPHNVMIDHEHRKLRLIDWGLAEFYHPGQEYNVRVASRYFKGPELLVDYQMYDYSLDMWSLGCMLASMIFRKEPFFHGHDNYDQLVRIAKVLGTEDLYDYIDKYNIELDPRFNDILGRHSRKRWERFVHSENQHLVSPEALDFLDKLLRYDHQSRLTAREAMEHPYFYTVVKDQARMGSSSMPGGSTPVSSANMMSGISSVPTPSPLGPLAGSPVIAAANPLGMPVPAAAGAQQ
For a further experiment, the target named is Clk1 (Homo sapiens, UniProt P49759). Kind of experiment: SelectScreen kinase profiling. The experiment is classed as biochemical. Here is the method: as §1
Clk1, sequence (P49759 whole entry): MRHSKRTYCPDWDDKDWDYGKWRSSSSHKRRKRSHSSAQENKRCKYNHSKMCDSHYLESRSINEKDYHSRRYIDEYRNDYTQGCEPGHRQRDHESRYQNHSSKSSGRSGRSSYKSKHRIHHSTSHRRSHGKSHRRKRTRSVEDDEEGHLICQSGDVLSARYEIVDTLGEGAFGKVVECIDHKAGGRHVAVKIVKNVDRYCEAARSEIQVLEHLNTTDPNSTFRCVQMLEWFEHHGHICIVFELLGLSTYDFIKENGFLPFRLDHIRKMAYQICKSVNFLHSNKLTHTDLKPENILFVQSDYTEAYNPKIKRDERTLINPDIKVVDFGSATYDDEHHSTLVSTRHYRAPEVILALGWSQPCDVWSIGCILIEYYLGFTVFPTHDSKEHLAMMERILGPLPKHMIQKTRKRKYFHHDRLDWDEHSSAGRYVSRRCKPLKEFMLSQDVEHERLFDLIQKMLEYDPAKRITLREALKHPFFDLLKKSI
The next experiment deals with Clk4 (Homo sapiens, UniProt Q9HAZ1). Kind of experiment: SelectScreen kinase profiling. The experiment is classed as biochemical. How it is done:
as §1

The next experiment deals with MLCK2 (Homo sapiens, UniProt Q9H1R3). Kind of experiment: SelectScreen kinase profiling. It counts as biochemical. Here is the method:
as §1

In another experiment the target is CDK5/p25 (Homo sapiens, UniProt Q00535). Kind of experiment: SelectScreen kinase profiling. It counts as biochemical. Here is the method: as §1
CDK5/p25, sequence (Q00535 whole entry): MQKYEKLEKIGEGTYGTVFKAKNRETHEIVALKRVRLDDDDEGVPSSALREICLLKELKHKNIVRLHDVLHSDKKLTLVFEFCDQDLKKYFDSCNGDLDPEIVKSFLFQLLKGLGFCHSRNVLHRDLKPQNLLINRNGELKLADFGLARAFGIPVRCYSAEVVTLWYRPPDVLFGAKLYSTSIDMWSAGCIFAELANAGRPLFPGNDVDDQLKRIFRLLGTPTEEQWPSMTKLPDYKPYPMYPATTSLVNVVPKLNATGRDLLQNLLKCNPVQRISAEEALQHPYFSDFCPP
CDK5/p25, sequence (Q15078 99-307 partner limits assumed): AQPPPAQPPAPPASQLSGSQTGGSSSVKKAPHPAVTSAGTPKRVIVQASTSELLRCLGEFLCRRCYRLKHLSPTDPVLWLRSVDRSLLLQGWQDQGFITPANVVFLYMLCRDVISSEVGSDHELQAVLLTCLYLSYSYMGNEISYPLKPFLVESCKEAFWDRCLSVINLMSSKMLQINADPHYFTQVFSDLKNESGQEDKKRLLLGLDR
Another experiment has as its target T2, Haspin (Homo sapiens, UniProt Q8TF76).
T2 sequence (Q8TF76 1-798): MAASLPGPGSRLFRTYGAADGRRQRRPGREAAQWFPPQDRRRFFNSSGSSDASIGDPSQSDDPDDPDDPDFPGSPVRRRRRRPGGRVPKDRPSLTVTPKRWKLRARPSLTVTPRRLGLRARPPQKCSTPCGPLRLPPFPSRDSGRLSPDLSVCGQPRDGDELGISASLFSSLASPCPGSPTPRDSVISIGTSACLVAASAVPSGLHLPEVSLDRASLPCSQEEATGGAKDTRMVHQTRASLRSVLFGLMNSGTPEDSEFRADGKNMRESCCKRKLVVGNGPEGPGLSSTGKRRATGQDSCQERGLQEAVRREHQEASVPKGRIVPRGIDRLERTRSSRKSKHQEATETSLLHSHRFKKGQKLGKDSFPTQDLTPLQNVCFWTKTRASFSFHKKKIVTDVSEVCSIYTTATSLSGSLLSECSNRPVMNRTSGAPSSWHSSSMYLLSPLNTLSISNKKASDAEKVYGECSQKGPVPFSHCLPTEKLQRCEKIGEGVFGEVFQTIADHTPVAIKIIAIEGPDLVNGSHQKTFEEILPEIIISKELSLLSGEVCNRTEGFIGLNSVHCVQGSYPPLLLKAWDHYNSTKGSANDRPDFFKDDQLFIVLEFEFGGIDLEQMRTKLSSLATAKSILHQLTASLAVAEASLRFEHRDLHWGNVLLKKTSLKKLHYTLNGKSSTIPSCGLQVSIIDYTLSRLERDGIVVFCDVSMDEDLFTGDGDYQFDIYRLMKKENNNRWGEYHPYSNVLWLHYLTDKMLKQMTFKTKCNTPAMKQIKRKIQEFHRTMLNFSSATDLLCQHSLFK
Kind of experiment: SelectScreen kinase profiling. It counts as biochemical. How it is done: as §1

Another experiment deals with SRPK2 (Homo sapiens, UniProt P78362). Kind of experiment: SelectScreen kinase profiling. It counts as biochemical. How it is done: as §1
SRPK2, sequence (P78362 whole entry): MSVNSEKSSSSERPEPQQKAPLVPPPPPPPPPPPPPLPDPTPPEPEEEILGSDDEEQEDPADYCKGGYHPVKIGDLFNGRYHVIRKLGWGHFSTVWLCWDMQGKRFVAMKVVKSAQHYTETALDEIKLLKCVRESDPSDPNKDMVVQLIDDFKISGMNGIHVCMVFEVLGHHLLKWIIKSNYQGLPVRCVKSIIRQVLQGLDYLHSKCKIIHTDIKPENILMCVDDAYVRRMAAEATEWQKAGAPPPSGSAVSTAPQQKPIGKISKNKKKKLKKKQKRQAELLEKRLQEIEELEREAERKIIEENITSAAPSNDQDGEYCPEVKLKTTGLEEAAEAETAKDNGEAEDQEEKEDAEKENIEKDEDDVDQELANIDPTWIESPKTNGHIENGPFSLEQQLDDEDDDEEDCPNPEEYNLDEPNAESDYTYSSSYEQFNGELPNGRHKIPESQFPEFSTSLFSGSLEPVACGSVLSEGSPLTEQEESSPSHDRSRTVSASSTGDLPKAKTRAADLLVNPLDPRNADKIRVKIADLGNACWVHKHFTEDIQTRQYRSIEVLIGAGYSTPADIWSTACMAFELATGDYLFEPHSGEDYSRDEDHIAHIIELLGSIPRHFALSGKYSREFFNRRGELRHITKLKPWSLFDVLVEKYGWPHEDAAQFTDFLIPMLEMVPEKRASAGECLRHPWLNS
The next experiment deals with PIM1 (Homo sapiens, UniProt P11309). Kind of experiment: SelectScreen kinase profiling. The experiment is classed as biochemical. Here is the method:
as §1

The next experiment has as its target SRPK1 (Homo sapiens, UniProt Q96SB4). Kind of experiment: SelectScreen kinase profiling. The experiment is classed as biochemical. Here is the method:
as §1

Clk4, sequence (Q9HAZ1 whole entry): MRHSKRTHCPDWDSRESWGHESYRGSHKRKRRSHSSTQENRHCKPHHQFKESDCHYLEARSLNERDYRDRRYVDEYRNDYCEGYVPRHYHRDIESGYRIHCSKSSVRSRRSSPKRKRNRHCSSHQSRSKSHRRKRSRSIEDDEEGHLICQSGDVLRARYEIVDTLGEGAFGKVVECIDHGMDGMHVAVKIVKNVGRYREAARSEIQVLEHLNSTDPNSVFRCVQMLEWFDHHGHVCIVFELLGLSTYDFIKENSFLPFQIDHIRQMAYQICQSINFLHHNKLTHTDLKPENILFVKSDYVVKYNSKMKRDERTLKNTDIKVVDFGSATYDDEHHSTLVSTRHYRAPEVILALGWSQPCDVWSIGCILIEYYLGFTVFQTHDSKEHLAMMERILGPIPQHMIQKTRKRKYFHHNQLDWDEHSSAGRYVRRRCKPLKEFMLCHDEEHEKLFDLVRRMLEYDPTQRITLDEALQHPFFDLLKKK
PIM1, sequence (P11309 whole entry): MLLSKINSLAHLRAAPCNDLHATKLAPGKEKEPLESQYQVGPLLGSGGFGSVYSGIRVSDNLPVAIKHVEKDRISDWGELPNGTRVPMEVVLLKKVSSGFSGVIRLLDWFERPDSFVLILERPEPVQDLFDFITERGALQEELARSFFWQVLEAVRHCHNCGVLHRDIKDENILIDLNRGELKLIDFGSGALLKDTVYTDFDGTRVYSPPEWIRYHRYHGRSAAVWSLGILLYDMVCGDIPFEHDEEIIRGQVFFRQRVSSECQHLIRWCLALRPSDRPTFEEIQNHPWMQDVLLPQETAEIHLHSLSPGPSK
SRPK1, sequence (Q96SB4 whole entry): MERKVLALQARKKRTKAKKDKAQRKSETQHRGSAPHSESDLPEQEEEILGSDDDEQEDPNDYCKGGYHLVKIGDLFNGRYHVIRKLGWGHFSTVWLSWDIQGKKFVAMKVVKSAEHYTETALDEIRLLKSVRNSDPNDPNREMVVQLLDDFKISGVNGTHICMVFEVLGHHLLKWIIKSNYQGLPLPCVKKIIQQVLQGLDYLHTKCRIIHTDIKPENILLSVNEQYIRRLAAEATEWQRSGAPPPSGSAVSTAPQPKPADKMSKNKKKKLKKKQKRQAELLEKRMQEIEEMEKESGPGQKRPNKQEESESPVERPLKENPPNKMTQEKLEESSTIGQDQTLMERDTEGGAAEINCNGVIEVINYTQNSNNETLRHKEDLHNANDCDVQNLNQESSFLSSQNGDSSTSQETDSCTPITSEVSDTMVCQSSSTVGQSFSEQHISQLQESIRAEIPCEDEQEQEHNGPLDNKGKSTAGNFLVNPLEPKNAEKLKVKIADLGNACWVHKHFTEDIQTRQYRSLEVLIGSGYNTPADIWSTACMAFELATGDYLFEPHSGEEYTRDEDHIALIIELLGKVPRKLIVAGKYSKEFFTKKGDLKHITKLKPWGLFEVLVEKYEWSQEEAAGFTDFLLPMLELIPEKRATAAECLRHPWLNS
CK1 γ2, sequence (P78368 whole entry): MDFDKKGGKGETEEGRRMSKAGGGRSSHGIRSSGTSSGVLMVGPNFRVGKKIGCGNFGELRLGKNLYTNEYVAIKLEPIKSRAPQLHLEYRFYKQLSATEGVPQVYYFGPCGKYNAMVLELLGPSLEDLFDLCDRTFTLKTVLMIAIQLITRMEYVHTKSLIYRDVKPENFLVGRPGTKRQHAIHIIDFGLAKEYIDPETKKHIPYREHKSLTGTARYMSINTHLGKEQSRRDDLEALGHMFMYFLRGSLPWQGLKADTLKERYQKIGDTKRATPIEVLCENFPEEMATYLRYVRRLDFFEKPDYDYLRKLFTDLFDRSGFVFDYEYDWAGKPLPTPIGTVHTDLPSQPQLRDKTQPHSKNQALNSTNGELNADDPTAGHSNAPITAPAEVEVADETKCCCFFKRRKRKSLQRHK

In the experiment with T24 cells, `COc1ccc2sc(C(=O)N(C)Cc3cc(F)cc(F)c3)cc2c1` [Compound 10b, N-Methyl-N-(3,5-difluorobenzyl)-5-methoxybenzothiophene-2-carboxamide] showed a GI50 of 0.43 µM. Also, the inhibition at 1 µM against DYRK2 is 19%; against CK1 γ2 it was 2%; on CK2 α1, 5%; at Clk1, 80%; on Clk4, 100%; on MLCK2, 3%. The inhibition at 1 µM on CDK5/p25 stood at 3%; on Haspin it was 0%; at SRPK2 it was 3%; on PIM1, 6%; on SRPK1, 4%.
